Measured values reported in patent publication US20250345169A1, “DEVICES FOR PROVIDING TISSUE SUPPORT DURING BREAST RECONSTRUCTION, AND SYSTEMS AND METHODS THEREOF” (Melodi Health, Inc., priority 2023, published 2025).

Conditions: in vivo

For CO[C@H]1/C=C/O[C@@]2(C)Oc3c(C)c(O)c4c(O)c(c(/C=N/N5CCN(C)CC5)c(O)c4c3C2=O)NC(=O)/C(C)=C\C=C\[C@H](C)[C@H](O)[C@@H](C)[C@@H](O)[C@@H](C)[C@H](OC(C)=O)[C@@H]1C [Rifampin], the systemic plasma level was “below detection limits”.

With CN(C)c1ccc(O)c2c1C[C@H]1C[C@H]3[C@H](N(C)C)C(O)=C(C(N)=O)C(=O)[C@@]3(O)C(O)=C1C2=O [Minocycline] the systemic plasma level was “below detection limits”.
